Entries after “also recorded” stand apart in the source; their conditions may differ.
Target: T1, MmBCO2 (Mus musculus, UniProt Q99NF1)
T1 construct: All genes were full length except AtCCD7; expressed in transfected cells; host or cells: E. coli BL21(DE3) harbouring pAC-BETA
T1 sequence (Q99NF1 1-532): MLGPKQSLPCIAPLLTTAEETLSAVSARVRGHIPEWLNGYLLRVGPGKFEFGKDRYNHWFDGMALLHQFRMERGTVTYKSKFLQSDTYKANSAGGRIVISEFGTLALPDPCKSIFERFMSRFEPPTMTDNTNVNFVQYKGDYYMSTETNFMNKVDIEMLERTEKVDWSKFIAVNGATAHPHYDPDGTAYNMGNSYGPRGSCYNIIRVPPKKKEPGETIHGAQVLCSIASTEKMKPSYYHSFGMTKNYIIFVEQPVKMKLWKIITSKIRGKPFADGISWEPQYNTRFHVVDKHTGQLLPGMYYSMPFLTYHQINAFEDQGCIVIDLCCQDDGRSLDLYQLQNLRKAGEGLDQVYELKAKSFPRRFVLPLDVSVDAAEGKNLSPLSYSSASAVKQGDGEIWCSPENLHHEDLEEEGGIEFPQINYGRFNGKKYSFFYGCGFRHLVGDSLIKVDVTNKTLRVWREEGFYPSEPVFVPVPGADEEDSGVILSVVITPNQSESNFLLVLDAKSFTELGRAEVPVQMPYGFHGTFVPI
Assay: In vivo enzyme assay in β-carotene-producing E. coli expressing MmBCO2
Format: cell-based
Conditions: 100 μM inhibitor, 16 hours; FIG. 4
Text: In vivo enzyme assays in E. coli—The genes of interest (supplemental Table S1) were cloned into the vector pET30c (Novagen) fused directly to the initial ATG codon with no tag, or into pGEX-4T such that the gene was fused to an N-terminal GST tag. All genes were full length except AtCCD7, which had the chloroplast signal sequence removed (supplemental methods). […] Therefore, this construct was used in subsequent assays. The plasmids were transferred to the E. coli expression strain BL21(DE3), harbouring pAC-BETA (38), and therefore producing β-carotene.
For each inhibitor assay, 2.5 ml LB media with the appropriate antibiotics (25 μg ml^−1 chloramphenicol and 50 μg ml^−1 kanamycin or 100 μg ml^−1 ampicillin) and 2.5 μM IPTG, was prepared. […] The supernatant was removed and the O.D.453-O.D.550 was measured. The amount of β-carotene was calculated using a standard curve generated from a dilution series of β-carotene (Sigma) in ethanol with 0.2% Triton X-100; the absolute levels of β-carotene are shown in FIG. 8. The relative inhibition was calculated by the equation: (Ci−Cc)/(C1−Cc)×100, where Ci is the carotenoid level with inhibitor and CCD present, Cc is the level with CCD but without the inhibitor and C1 is the level in a strain where lacZ is expressed instead of the CCD, and no inhibitor is present. […]

`COc1ccc(C(=O)N(O)Cc2ccccc2)cc1` [Compound F1, N-benzyl-4-methoxybenzoyl hydroxamic acid] was tested, and the “relative inhibition of MmBCO2 in E. coli (in words)” value was “most effective compounds at inhibiting MmBCO2; also recorded: high inhibitory activity”.

In the case of `COc1ccc(C(=O)N(O)Cc2ccc(F)cc2)cc1` [Compound F2, N-(4-fluorobenzyl)-4-methoxybenzoyl hydroxamic acid], the “relative inhibition of MmBCO2 in E. coli (in words)” value is reported as “most effective compounds at inhibiting MmBCO2; also recorded: high inhibitory activity”.

Reference: US9210928B2, “Plant development control composition” (Syngenta Crop Protection, LLC, priority 2008, dated 2015)
